Here are results for two molecules from EPA's ToxValDB 9.5 (doi:10.2903/j.efsa.2006.72r).

For one data set, the system named is Mus musculus. The conditions noted are these: chronic, duration: 2 years.
A further data set has as its system Anas platyrhynchos. The conditions noted are these: short-term; oral; feed; mortality.
The test system of another data set is Colinus virginianus. The note with it: acute; oral; diet; mortality.
The test system of a further data set is Cyprinodon variegatus. The conditions noted are these: acute; duration: 96 hours; mortality.
For another data set, the system named is Daphnia magna. The note with it: chronic/long-term; duration: 21 days; mortality.
The subject of the next data set is Rattus norvegicus. The note with it: for LD50: acute, mortality; for NOAEL: histopathology: neoplastic.
In the next data set the test system is Canidae. The conditions noted are these: short-term; duration: 2 weeks; Dog Other.
Another data set deals with Folsomia candida. The conditions noted are these: not reported; mortality.
The next data set deals with Oryctolagus sp. The conditions noted are these: reproduction developmental; inhalation.
The test system of another data set is Pimephales promelas. The note with it: chronic/long-term; duration: 33 days; growth.
The next data set deals with Landoltia sp. The note with it: acute; duration: 14 days; mortality.
Another data set concerns Oncorhynchus mykiss. The note with it: acute; duration: 96 hours; mortality.

As a reminder, the NOAEL is the highest dose or exposure tested at which no adverse effect was seen.

The structures appear in SMILES notation. ≈ marks a conversion by molar mass, not a printed value.

Consider `ClC=CCCl` [1,3-Dichloropropene], for which the NOAEL in the data set on Mus musculus (inhalation, histopathology: neoplastic) was determined as 4.43 mg/kg-day; in the data set with Mus musculus (oral, M/F), 2.5 mg/kg-day; with Rattus norvegicus (chronic, duration: 2 years, oral, diet) it was 2.5 mg/kg-day; with Rattus norvegicus (subchronic, duration: 90 days, inhalation), 9.72 mg/kg-day; in the data set with Canidae, 20 mg/kg-day; in the data set with Oryctolagus sp., 0.0908 mg/L. The LC50 is > 1260 mg/kg-day with Anas platyrhynchos; 55.6 mg/kg with Tagia sp. (acute, duration: 14 days, mortality); 0.87 µg/mL (≈ 7.84 µM) in the data set with Cyprinodon variegatus. Also, the figures for the LD50 with Colinus virginianus, with Rattus norvegicus (inhalation) and in the data set on Rattus norvegicus (oral) were 140 mg/kg, 2.7 mg/L and 130 mg/kg, respectively. The NOEC with Tagia sp. (chronic/long-term, duration: 56 days, reproduction) was 770 mg/kg; in the data set on Daphnia magna, 0.0701 mg/L; with Pimephales promelas, 0.032 mg/L. For the same molecule, the LEL with Folsomia candida is 329000 g/ha.
In turn, `O=C(O)C=CCl` [3-Chloroacrylic acid] returned an LD50 in the data set on Rattus norvegicus (oral) of 91 mg/kg. Besides, the LC50 in the data set with Landoltia sp. amounted to 0.26 µg/mL (≈ 2.44 µM); with Oncorhynchus mykiss, 69.5 µg/mL (≈ 653 µM).
